For twelve molecules, TGI results are on record in PubChem BioAssay (NCI).

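Each compound was tested at five concentrations against cells in 96-well plates for 48 hours. TGI denotes the concentration required for complete inhibition of growth.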

Some test systems named below: MDA-N; DMS 114 small cell lung; HOP-18 NSCLC; KM20L2 colon; P388 leukemia; P388/ADR leukemia; SN12K1 renal; SNB-78 CNS; LXFL 529 NSCLC; RXF-631 renal.
Test in all cases: NCI tumour cell line growth inhibition, 48 h

Take `O=C(O)Cc1[nH]cnc1C(=O)O`: the TGI in the test on MDA-N is more than 100 µM.

In turn, `CC1(C)N=C(N)N=C(N)N1c1cccc(OCc2cccc([N+](=O)[O-])c2)c1` had a TGI in the test on MDA-N of more than 100 µM.

Take `COC(=O)c1nc2c3c(cccc3c1C(=O)OC)Nc1ccccc1-2`: the TGI with MDA-N is more than 100 µM.

In the test on MDA-N, `O=C1OC2(c3ccc(O)cc3Oc3cc(O)ccc32)c2c1c(-c1ccccc1)c(-c1ccccc1)c(-c1ccccc1)c2-c1ccccc1` came in with a TGI of 44.9 µM.

As for `CSc1sc(=S)sc1SC`, the TGI in the test on DMS 114 small cell lung, in the test with HOP-18 NSCLC, in the test with KM20L2 colon, with P388 leukemia, with P388/ADR leukemia and with SN12K1 renal was more than 100 µM throughout. Also, in the test with SNB-78 CNS, the TGI is more than 100 µM.

As to `NC(=O)c1cc(C2OC(CO)C(O)C2O)nn1-c1ccc([N+](=O)[O-])cc1` (stereo not drawn), the TGI in the test with DMS 114 small cell lung, with HOP-18 NSCLC, with KM20L2 colon, in the test with LXFL 529 NSCLC and in the test with SNB-78 CNS was more than 100 µM each time.

Consider `C[C@H](CCC1=NCCN1)[C@H]1CC[C@H]2[C@@H]3CC[C@@H]4C[C@H](O)CC[C@]4(C)[C@H]3CC[C@]12C`, for which, in the test on MDA-N, the TGI came to 29.5 µM.

Regarding `O=C(O)C(Br)Cc1ccc2c(c1)OCO2` (stereo not drawn), the TGI in the test with DMS 114 small cell lung, in the test on KM20L2 colon, in the test on LXFL 529 NSCLC and in the test with SNB-78 CNS was more than 100 µM throughout.

Turning to `COc1ccc(/C(Cl)=C(\C=O)c2ccc(Cl)c(Cl)c2)cc1OC`, the TGI was found to be 33.9 µM in the test with DMS 114 small cell lung; 18.8 µM in the test on KM20L2 colon; 13.7 µM in the test with LXFL 529 NSCLC; 16.6 µM with RXF-631 renal; 31.2 µM in the test on SNB-78 CNS.

With `O=C1c2ccccc2C(=O)c2c(O)c(O)cc(O)c21`, the TGI in the test on LXFL 529 NSCLC, with RXF-631 renal and in the test with SNB-78 CNS was more than 100 µM throughout.

Take `Nc1nncs1`: the TGI in the test on DMS 114 small cell lung is more than 5000 µM; with HOP-18 NSCLC, more than 5000 µM; in the test with KM20L2 colon it was more than 4800 µM; in the test with MDA-N, more than 5000 µM; in the test on P388 leukemia, 2670 µM; in the test with P388/ADR leukemia, 2820 µM. Moreover, the results for the TGI with SN12K1 renal and in the test with SNB-78 CNS were more than 5000 µM and more than 4420 µM, respectively.

For the molecule `O=C(O)CNCc1c2ccccc2[n+]([O-])c2ccccc12`, the TGI with DMS 114 small cell lung, in the test with HOP-18 NSCLC, in the test with KM20L2 colon, with LXFL 529 NSCLC, in the test on RXF-631 renal and with SNB-78 CNS was more than 100 µM in each case.
